4 molecules from patent US7388008B2, “Lysine based compounds” (priority 2004, dated 2008) can be followed below.

This data set can be described thus: Bioavailability: plasma concentration after single oral dose in rats. The settings on record: for AUC: 50 mg/Kg po, rat plasma; for Delivery of parent drug (PL-100, PL-337) compared to non-aqueous formulations of PL-100 and PL-337: aqueous dosing; for Delivery of parent drug (PL-100, PL-337) compared to non-aqueous formulations of PL-100 and PL-337 / Administered compound detected in the blood samples: 50 mg/kg po, rat; for Administered compound detected in the blood samples: delivered as aqueous solutions. In kind it is in vivo, male Sprague-Dawley rats. The procedure: To assess the extent of in vivo cleavage of the phosphate group from the putative compounds, PL-100, PL-462 (based on PL-100), PL-337 and PL-515 (based on PL-337) compounds were administered po (50 mg/kg) to male Sprague-Dawley rats and their plasma concentration measured at different time intervals post-administration. All test articles (PL-100, PL-462, PL-337 and PL-515) were prepared in different vehicle at the final concentration of 25 mg/mL. The vehicle composition is as follows: (1) 20% ethanol; 50% propylene glycol; 0.05% w/v Tween 20 and water (Mix); (2) PBS buffer (PBS). Test articles were administered to male Sprague-Dawley rats at a single oral dose of 50 mg/kg. Each article was tested in three rats. Blood samples (0.2–0.3 mL) were collected at the post-dose time of 10, 20, 40, 60, 120, 180 and 360 minutes. The harvested blood was centrifuged to isolate plasma. The resulting plasma was separated and stored at −70° C. Plasma samples together with standards and quality control samples were treated to precipitate proteins, then analyzed by HPLC-MS, for the presence of PL-462, PL-100, PL-515 and PL-337.

Setting [1] is: vehicle Mix (20% ethanol; 50% propylene glycol; 0.05% w/v Tween 20 and water).
Where [2] appears, read: vehicle PBS, parent drug (PL-100 or PL-337) detected.

Under setting [1], `COC(=O)N[C@H](C(=O)NCCCC[C@@H](CO)N(CC(C)C)S(=O)(=O)c1ccc(N)cc1)C(c1ccccc1)c1ccccc1` [PL-100, (1S,5S)-(1-{5-[(4-amino-benzenesulfonyl)-isobutyl-amino]-6-hydroxy-hexylcarbamoyl}-2,2-diphenyl-ethyl)-carbamic acid methyl ester] displayed an AUC of 0.675 μg/hr * ml.

`COC(=O)N[C@H](C(=O)NCCCC[C@@H](CO)N(CC(C)C)S(=O)(=O)c1ccc(N)c(F)c1)C(c1ccccc1)c1ccccc1` [PL-337, (1-{5-[(4-amino-3-fluoro-benzenesulfonyl)-isobutyl-amino]-6-hydroxy-hexylcarbamoyl}-2,2-diphenyl-ethyl)-carbamic acid methyl ester]: the AUC under setting [1] came to 1.180 μg/hr * ml.

Regarding `COC(=O)N[C@H](C(=O)NCCCC[C@@H](COP(=O)(O)O)N(CC(C)C)S(=O)(=O)c1ccc(N)cc1)C(c1ccccc1)c1ccccc1.[Na]` [PL-462, (1S,5S)-(1-{5-[(4-amino-benzenesulfonyl)-isobutyl-amino]-6-phosphonooxy-hexylcarbamoyl}-2,2-diphenyl-ethyl)-carbamic acid methyl ester sodium salt], the “Delivery of parent drug (PL-100, PL-337) compared to non-aqueous formulations of PL-100 and PL-337” value was “equivalent to slightly superior”; the “Administered compound detected in the blood samples” value is given as “None”. Further, the AUC under setting [2] was 0.816 μg/hr * ml.

Take `COC(=O)N[C@H](C(=O)NCCCC[C@@H](COP(=O)(O)O)N(CC(C)C)S(=O)(=O)c1ccc(N)c(F)c1)C(c1ccccc1)c1ccccc1` [PL-515, (1S,5S)-(1-{5-[(4-amino-3-fluoro-benzenesulfonyl)-isobutyl-amino]-6-phosphonooxy-hexylcarbamoyl}-2,2-diphenyl-ethyl)-carbamic acid methyl ester]: the “Delivery of parent drug (PL-100, PL-337) compared to non-aqueous formulations of PL-100 and PL-337” value is “equivalent to slightly superior”; the “Administered compound detected in the blood samples” value is on record as “None”. Moreover, under setting [2], the AUC is recorded as 1.075 μg/hr * ml.
